Laboratory results from US12473295B2, “Substituted straight chain spiro derivatives” (Janssen Pharmaceutica NV, priority 2019, dated 2025).
Structures can show the parent of a compound that is named as a salt.

Tests used:
OCI-AML3 cells = assay: Proliferation assay (spheroid growth, 8 days), OCI-AML3; type: cell-based, human; conditions: Homo sapiens, OCI-AML-3, […], OCI-AML3, 8 days
Summary of the method: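 IC50 values derive from day-8 spheroid confluence, normalized between DMSO-treated wells and the highest dose of a reference compound, fitted with a variable slope. Cells grew 8 days at 37° C under a compound concentration series in 0.3% DMSO.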

[1] = target: menin/MLL (terbium chelate-labeled menin, FITC-MBM1 peptide) (Homo sapiens (Human), UniProt O00255); assay: Menin/MLL homogenous time-resolved fluorescence (HTRF) assay; type: binding; conditions: HTRF-30 min incubation IC50, 30 min incubation;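 further: IC50 from percent inhibition of HTRF signal, normalized between wells without competitor and wells with a saturating competitor that displaces FITC-MBM1 from His-tagged menin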
Chain of menin/MLL (terbium chelate-labeled menin, FITC-MBM1 peptide) (O00255 other isoform, or with tags, fused parts or gaps): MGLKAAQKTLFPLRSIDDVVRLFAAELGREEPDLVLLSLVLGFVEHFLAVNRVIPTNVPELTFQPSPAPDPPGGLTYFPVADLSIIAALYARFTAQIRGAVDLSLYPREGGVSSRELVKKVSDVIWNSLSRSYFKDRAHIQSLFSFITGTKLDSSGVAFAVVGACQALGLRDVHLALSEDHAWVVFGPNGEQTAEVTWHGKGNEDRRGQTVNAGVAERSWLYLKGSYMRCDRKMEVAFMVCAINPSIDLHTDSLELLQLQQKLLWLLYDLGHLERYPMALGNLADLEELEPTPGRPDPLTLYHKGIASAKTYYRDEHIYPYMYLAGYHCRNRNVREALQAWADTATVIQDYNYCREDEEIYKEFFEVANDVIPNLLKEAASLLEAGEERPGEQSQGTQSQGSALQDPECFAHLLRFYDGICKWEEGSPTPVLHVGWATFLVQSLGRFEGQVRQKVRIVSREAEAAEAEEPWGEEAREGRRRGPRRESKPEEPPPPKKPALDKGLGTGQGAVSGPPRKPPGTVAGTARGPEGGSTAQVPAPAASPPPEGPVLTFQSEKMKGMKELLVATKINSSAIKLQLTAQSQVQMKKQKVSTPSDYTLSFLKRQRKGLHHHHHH

KO-52 cells = assay: Proliferation assay (spheroid growth, 8 days), KO-52 control cell line; type: cell-based, human; conditions: Homo sapiens, […], read-out: spheroid assay_OneTime KO-52 IC50
Protocol: The anti-proliferative effect of menin/MLL protein/protein interaction inhibitor test compounds was assessed in human leukemia cell lines. The cell line MOLM14 harbors a MLL translocation and expresses the MLL fusion protein MLL-AF9, respectively, as well as the wildtype protein from the second allele. OCI-AML3 cells that carry the NPM1c gene mutation were also tested. […] KO-52 was used as a control cell line containing two MLL (KMT2A) wildtype alleles in order to exclude compounds that display general cytotoxic effects.
KO-52 and OCI-AML3 cell lines were propagated in alpha-MEM (Sigma Aldrich) supplemented with 20% heat-inactivated fetal bovine serum (HyClone), 2 mM L-glutamine (Sigma Aldrich) and 50 μg/ml gentamycin (Gibco).
In order to assess the anti-proliferative effects, 200 MOLM14 cells, 200 OCI-AML3 cells or 300 KO-52 cells were seeded in 200 μl media per well in […] round bottom, ultra-low attachment plates (Costar, catalogue number 7007). Cell seeding numbers were chosen based on growth curves to ensure linear growth throughout the experiment. Test compounds were added at different concentrations and the DMSO content was normalized to 0.3%. Cells were incubated for 8 days at 37° C. and 5% CO2. Spheroid like growth was measured in real-time by live-cell imaging (IncuCyteZOOM, Essenbio, 4× objective) acquiring images at day 8. Confluence (%) as a measure of spheroid size was determined using an integrated analysis tool.
In order to determine the effect of the test compounds over time, the confluence in each well as a measure of spheroid size, was calculated. Confluence of the highest dose of a reference compound was used as baseline for the LC (Low control) and the confluence of DMSO treated cells was used as 0% cytotoxicity (High Control, HC).
GraphPad Prism(version 7.00) was used to calculate the IC50. Dose-response equation was used for the plot of % Effect vs Log 10 compound concentration with a variable slope and fixing the maximum to 100% and the minimum to 0%.

MOLM14 cells = assay: Proliferation assay (spheroid growth, 8 days), MOLM14; type: cell-based, human; conditions: Homo sapiens, MOLM-14, […], MOLM14, 8 days; read-out: spheroid assay_OneTime MOLM14 IC50;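 further: spheroid size read as confluence by live-cell imaging, compounds added at a range of concentrations with 0.3% DMSO, DMSO-treated wells = 0%, highest reference dose = low control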
MEIS1 mRNA = MEIS1 mRNA expression assay (Quantigene Singleplex) in MOLM14 cells; type: cell-based, human; conditions: Homo sapiens, MOLM-14, 48 h, 48 hours incubation;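 further: MEIS1 transcript levels read by probe hybridization and normalized to RPL28 mRNA, with IC50 fitted to fold changes across a rising compound concentration series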

| SMILES | IC50 (OCI-AML3 cells) | IC50 [1] | IC50 (MOLM14 cells) | IC50 (MEIS1 mRNA) | IC50 (KO-52 cells) |
| --- | --- | --- | --- | --- | --- |
| CCN(C(=O)c1cc(F)ccc1Oc1nncnc1N1CCC2(C1)CN([C@H](CCCN(C)C(C)CC(=O)N(C)C)C(C)C)C2)C(C)C (some centres unmarked) [Compound 179, fumarate] | 0.059 µM | 0.00013 µM | 0.033 µM | 0.027 µM | > 15 µM |
| CCN(C(=O)c1cc(F)ccc1Oc1nncnc1N1CCC2(C1)CN([C@H](CCCN(C)[C@H](C)CC(=O)NC)C(C)C)C2)C(C)C [Compound 191, N-ethyl-5-fluoro-N-isopropyl-2-((5-(2-((R)-2-methyl-6-(methyl((R)-4-(methylamino)-4-oxobutan-2-yl)amino)hexan-3-yl)-2,6-diazaspiro[3.4]octan-6-yl)-1,2,4-triazin-6-yl)oxy)benzamide fumarate] | 0.56 µM | 0.00028 µM | 0.28 µM | 0.22 µM | > 15 µM |
| CCN(C(=O)c1cc(F)ccc1Oc1nncnc1N1CCC2(C1)CN([C@H](CCCN(C)[C@H](C)CC(=O)N(C)C)C(C)C)C2)C(C)C (single isomer, unassigned) [Compound 184, 2-((5-(2-((R)-6-(((*R)-4-(dimethylamino)-4-oxobutan-2-yl)(methyl)amino)-2-methylhexan-3-yl)-2,6-diazaspiro[3.4]octan-6-yl)-1,2,4-triazin-6-yl)oxy)-N-ethyl-5-fluoro-N-isopropylbenzamide fumarate] | 0.19 µM | ~0.00036 µM | 0.23 µM | 0.11 µM | 3 µM |
| CC(C)[C@@H](CCCN(C)[C@H](C)CC(N)=O)N1CC2(CCN(c3ncnnc3Oc3ccc(F)cc3C(=O)N(C(C)C)C(C)C)C2)C1 (single isomer, unassigned) [Compound 199, 2-((5-(2-((*R)-6-(((R)-4-amino-4-oxobutan-2-yl)(methyl)amino)-2-methylhexan-3-yl)-2,6-diazaspiro[3.4]octan-6-yl)-1,2,4-triazin-6-yl)oxy)-5-fluoro-N,N-diisopropylbenzamide fumarate] | 1.91 µM | 0.00013 µM | 0.46 µM | ~0.26 µM | > 15 µM |
| CCN(C(=O)c1cc(F)ccc1Oc1nncnc1N1CCC2(C1)CN([C@H](CCCN(C)CCCC(=O)N(C)C)C(C)C)C2)C(C)C [Compound 152, (R)-2-((5-(2-(6-((4-(dimethylamino)-4-oxobutyl)(methyl)amino)-2-methylhexan-3-yl)-2,6-diazaspiro[3.4]octan-6-yl)-1,2,4-triazin-6-yl)oxy)-N-ethyl-5-fluoro-N-isopropylbenzamide fumarate] | 0.35 µM | 0.00019 µM | 0.037 µM | 0.087 µM | > 15 µM |

Stronger by IC50 (OCI-AML3 cells), values ahead:

| IC50 (OCI-AML3 cells) | IC50 [1] | IC50 (MOLM14 cells) | IC50 (MEIS1 mRNA) | SMILES | IC50 (KO-52 cells) |
| --- | --- | --- | --- | --- | --- |
| 0.038 µM | 0.00013 µM | 0.023 µM | 0.013 µM | CCN(C(=O)c1cc(F)ccc1Oc1nncnc1N1CCC2(C1)CN([C@H](CCCNCC(COC)OC)C(C)C)C2)C(C)C (stereo partly drawn) [Compound 172, 2-((5-(2-((3R)-6-((2,3-dimethoxypropyl)amino)-2-methylhexan-3-yl)-2,6-diazaspiro[3.4]octan-6-yl)-1,2,4-triazin-6-yl)oxy)-N-ethyl-5-fluoro-N-isopropylbenzamide fumarate] | 13.4 µM |
| 0.025 µM | 0.00017 µM | 0.01 µM | 0.078 µM | CCN(C)C[C@@H](O)C[C@H](C(C)C)N1CC2(CCN(c3ncnnc3Oc3ccc(F)cc3C(=O)N(CC)C(C)C)C2)C1 (single isomer, unassigned) [Compound 342, N-ethyl-2-((5-(2-((3*S,5S)-6-(ethyl(methyl)amino)-5-hydroxy-2-methylhexan-3-yl)-2,6-diazaspiro[3.4]octan-6-yl)-1,2,4-triazin-6-yl)oxy)-5-fluoro-N-isopropylbenzamide fumarate] | 0.023 µM |
